Assay results: ChEMBL document CHEMBL3132843, “Discovery of novel inhibitors for human farnesyltransferase (hFTase) via structure-based virtual screening” (Medchemcomm, 2013)

Experiments:
MCF7 = assay: Cytotoxicity against human MCF7 cells after 48 hrs by MTT assay; type: functional, cell-based; conditions: MCF7, 48 h
[1] = molecular target: Protein farnesyltransferase (Homo sapiens, UniProt P49354+P49356); assay: Inhibition of human FTase using farnesyl pyrophosphate as substrate by fluorescent assay; type: protein-complex assay

| SMILES | IC50 (MCF7) [µM] | IC50 [1] [µM] |
| --- | --- | --- |
| CC1=NN(c2ccccc2)C(=O)/C1=C/c1ccccc1OCc1ccc(C(=O)O)cc1 | 38.9 | 2.58 |
| O=C(O)C1CCCCC1C(=O)Nc1ccc(Oc2ccccc2)cc1 (stereo unspecified) | > 100 | 3.56 |
| Cc1cccc(Oc2ccc(NC(=O)c3ccccc3C(=O)O)cc2)c1C | > 100 | 6.9 |
| Cn1cncc1[C@@](N)(c1ccc(Cl)cc1)c1ccc2c(c1)c(-c1cccc(Cl)c1)cc(=O)n2C [TIPIFARNIB] | 3.08 | 0.003 |
| Cc1ccc(Oc2ncccc2NC(=O)CCCC(=O)O)c2c1CCC2 | > 100 | 5.4 |
| COc1ccc(-c2cc(C(=O)OCC(=O)c3cccc4ccccc34)c3ccccc3n2)cc1 | > 100 | 0.37 |
| COc1cc(CNc2ccc(O)cc2)cc(Cl)c1OCc1ccc(Cl)cc1 | 20.5 | 2.57 |
| O=C(c1ccc(Cl)cc1)N1N=C(c2c(-c3ccccc3)c3cc(Br)ccc3[nH]c2=O)CC1c1ccco1 (stereo unspecified) | 32.2 | 0.52 |
| N#Cc1c(SCc2ccc(C(=O)O)cc2)nc2c(c1-c1ccccc1)CCC2 | > 100 | 5.6 |
| Cc1c(Cc2ccccc2)sc(CC(=O)CCC(=O)O)c1C(N)=O | > 100 | 3.52 |
| COc1cccc(C2C(C(=O)/C=C/c3ccccc3)=C(O)C(=O)N2c2ccccc2)c1 (stereo unspecified) | > 100 | 1.46 |
| CCOC(=O)c1c(C)oc2c1cc(NS(=O)(=O)c1ccc(C(=O)O)cc1)c1ccccc12 | 46.7 | 3.89 |
| O=C(N/N=C\c1cn(Cc2ccc([N+](=O)[O-])cc2)c2ccccc12)c1cc2ccccc2o1 | > 100 | 0.14 |
| O=C(c1ccccc1)c1ccc(/N=C/c2cc([N+](=O)[O-])ccc2O)cc1 | > 100 | 11 |
| O=C(O)c1ccc(/N=[N+](/[O-])c2ccccc2Sc2ccccc2C(=O)O)cc1Sc1ccccc1O | > 100 | 3.22 |
| Oc1cccc2ccc(/C=C/c3ccccc3OCc3ccccc3Cl)nc12 | > 100 | 0.0119 |
| Oc1ccc(NCc2cc(Cl)ccc2OCc2ccccc2F)cc1 | 12.2 | 4.21 |
| COc1cc(/C=C2\S/C(=N\c3ccccc3)N(Cc3ccco3)C2=O)ccc1OC(C)C(=O)O (stereo unspecified) | > 100 | 5.14 |
| Cc1ccc(OC(=O)c2ccc3c(c2)C(=O)N(c2cccc4ccccc24)C3=O)cc1 | > 100 | 0.44 |
| Cc1ccc(Oc2ncccc2NC(=O)CC(CC(=O)O)c2ccccc2)c2c1CCC2 (stereo unspecified) | > 100 | 13.3 |
| CCN(CC)c1ccc(/C=N/Nc2nc(NCc3ccco3)nc(Nc3ccc(OC)cc3)n2)c(OCc2ccc(Cl)cc2Cl)c1 | > 100 | 0.0515 |
| COCCN1C(=O)C(O)=C(C(=O)c2ccc(C)cc2)C1c1cccc(Oc2ccccc2)c1 (stereo unspecified) | > 100 | 8.8 |
| Cc1cncc(NC(c2cccc(OCc3ccccc3)c2)c2ccc3cccnc3c2O)c1 (stereo unspecified) | 14.3 | 0.0489 |
